# Like-named read-outs stand apart in the source and are kept apart here.
# Experiments:
# [1] = test system: MCF7; experiment: In vitro proliferation / cytotoxic assay on breast cancer cells (Examples 14, 25); details: for IC50: Homo sapiens
# Experimental: (§1) Data shown in Table I were fitted through sigmoidal dose response curves and analyzed using Prizm statistical.
# For the cytotoxic assay, cells were seeded in 96-well flat bottom culture plates in media containing charcoal stripped serum. After 24 hours, test compounds were added to the cells. DMSO was used as the vehicle negative control and RU486 as the positive control. After 72 hour incubation, cells were harvested and lysed to determine cell viability using the Cell Titer Glow assay.
# [2] = test system: 7 cancer cell lines; experiment: Therapeutic index over a panel of cancer cell lines; type: cell-based; details: average over the cancer cell lines of Table VII
# Experimental: (§2) The compound toxicity was determined as follow:
# (§3) Therapeutic Index=Safety/Potency=IC50 stimulated PBMC/IC50 cancer cell
# [3] = test system: HT29; experiment: MTT colorimetric assay on epithelial intestinal cancer cells; type: cell-based; details: for Therapeutic Index (TI), Resting PBMC: IC50 resting PBMC / IC50 HT29; for Therapeutic Index (TI), Stimulated PBMC: IC50 stimulated PBMC / IC50 HT29
# Experimental: The experiment was performed to test and define anticancer activity in vitro of Cortexolone 17α-benzoate and cortexolone 17α-valerate, 21-propionate on cell lines representatives of epithelial intestinal tumours, namely HT29. The experiment method consisted in: • 1. Monolayer HT-29 cells were plated in: 96-wells plates at the density of 2×10^4 cells/mL. The cells plated were kept at 37° C. in 5% CO2 and left to attach for 24 h. • 2. […] After 72 h of treatment, the MTT colorimetric assay was performed.
# [4] = test system: BxPC3; experiment: In vitro proliferation, larger panel (Example 14); details: for IC50: Homo sapiens
# Source text: as §1
# [5] = test system: MiaPaca2; experiment: ATP-dependent cell viability assay (Cell Titer Glo), Example 12; details: for IC50: Homo sapiens
# Source text: as §1
# [6] = test system: LNCaP; experiment: as above; details: LNCaP; for IC50: Homo sapiens
# Source text: as §1
# [7] = test system: Panc1; experiment: as above; details: for IC50: Homo sapiens
# Source text: as §1
# [8] = test system: PC3; experiment: as above; details: for IC50: Homo sapiens
# Source text: as §1
# [9] = test system: LNCaP (AR+); experiment: ATP-dependent proliferation assay with 10 nM DHT, prostate cancer cells (Examples 1, 2); type: cell-based, human; details: Homo sapiens, LNCaP/AR
# Experimental: (§4) The experiment was performed to test and to define the antitumor activity in vitro of cortexolone 17α-benzoate on LNCaP (AR^+) and PC3 (AR^−), representative of Prostatic cancer cell lines with Androgen receptor positive or negative expression, respectively. The experimental method consisted of: • 1. […] After 24 hrs, 10 nM DHT (dihydrotestosterone) with or without anti-androgen compounds, or DMSO vehicle (negative control) was added to the cultures. • 3.
# (§5) Data from Experiment 1 was fitted through sigmoidal dose response curves and analyzed using Prizm statistical analysis software. […] The results from 2 sets of experiments follow.
# as §4, with “define” for “define the”, “17α-valerate-21-propionate” for “17α-benzoate”, “hours,” for “hrs,”
# [10] = test system: PC3 (AR−); experiment: as above; type: cell-based, human; details: Homo sapiens, PC3/AR
# Experimental: as §4, §5
# as §4, with “define” for “define the”, “17α-valerate-21-propionate” for “17α-benzoate”, “hours,” for “hrs,”
# [11] = test system: Panc1 (AR+); experiment: ATP-dependent proliferation assay with 10 nM DHT, pancreatic cancer cells (Examples 3, 4, 7); details: for IC50: Homo sapiens; for TI on Resting PBMC: IC50 resting PBMC / IC50 Panc1; for TI on Stimulated PBMC: IC50 stimulated PBMC / IC50 Panc1
# Experimental: (§6) The experimental method consisted of: • 1. […] After 24 hrs, 10 nM DHT (dihydrotestosterone) with or without anti-androgen compounds, or DMSO vehicle (negative control) was added to the cultures. • 3.
# (§7) Data from Experiment 1 were fitted through sigmoidal dose response curves and analyzed using Prizm statistical analysis software. […] The results from 2 sets of experiments follow.
# (§8) Data from Experiment 1 was fitted through sigmoidal dose response curves and analyzed using Prizm statistical analysis software.
# [12] = test system: MiaPaca2 (AR low); experiment: as above; details: for IC50: Homo sapiens; for TI on Resting PBMC: IC50 resting PBMC / IC50 MiaPaca2; for TI on Stimulated PBMC: IC50 stimulated PBMC / IC50 MiaPaca2
# Experimental: as §6, §7, §8
# [13] = test system: stimulated PBMC; experiment: IC50 on stimulated (actively dividing) PBMC; type: cell-based, human; details: Homo sapiens, PBMC
# Experimental: as §2, §3
# [14] = test system: stimulated PBMC; experiment: IC50 on stimulated (actively dividing) PBMC; type: cell-based, human; details: PBMC Stim; Table IV
# [15] = Homo sapiens, HT-29, 72 h, read-out: Inhibition (%) on HT29
# [16] = Experiment 1, 0 = higher toxicity in PBMC
structure (smiles),measurement,setting,value
"C[C@]12CCC(=O)C=C1CC[C@@H]1[C@@H]2CC[C@@]2(C)[C@H]1CC[C@]2(OC(=O)c1ccccc1)C(=O)CO [CB-03-06, cortexolone 17α-benzoate]",IC50,"[1]; MCF7, 72 h",25 µM
same,IC50,"[1]; MCF7, read-out: In vitro proliferation IC50",25 µM
same,IC50,"[1]; MCF7, read-out: in vitro proliferation IC50",25 µM
same,Therapeutic Index = IC50 resting PBMC/IC50 cancer cell,"[1]; MCF7, Table IV",4
same,Therapeutic Index = IC50 stimulated PBMC/IC50 cancer cell,"[1]; MCF7, Table VII",4
same,"Therapeutic Index = IC50 stimulated PBMC/IC50 cancer cell, AVERAGE",[2],5
same,Therapeutic Index = IC50 resting PBMC/IC50 cancer cell,"[3]; HT29, Table IV",6
same,Therapeutic Index = IC50 stimulated PBMC/IC50 cancer cell,"[3]; HT29, Table VII",6
same,IC50,"[3]; Homo sapiens, HT-29, 72 h, read-out: IC50 Calculated",16 µM
same,inhibition at 0.8 µM,[3]; [15],-1.55%
same,inhibition at 4 µM,[3]; [15],20.4%
same,inhibition at 20 µM,[3]; [15],53.6%
same,inhibition at 100 µM,[3]; [15],92.2%
same,inhibition at 500 µM,[3]; [15],92.3%
same,IC50,"[3]; Homo sapiens, HT-29, read-out: In vitro proliferation IC50",16 µM
same,IC50,"[3]; Homo sapiens, HT-29, read-out: in vitro proliferation IC50",13 µM
same,"Therapeutic Index (TI), Resting PBMC",[3]; Experiment 1,6
same,"Therapeutic Index (TI), Resting PBMC",[3]; Experiment 2,5
same,"Therapeutic Index (TI), Stimulated PBMC",[3]; Experiment 1,7
same,"Therapeutic Index (TI), Stimulated PBMC",[3]; Experiment 2,6
same,Therapeutic Index = IC50 resting PBMC/IC50 cancer cell,"[4]; BxPC3, Table IV",3
same,Therapeutic Index = IC50 stimulated PBMC/IC50 cancer cell,"[4]; BxPC3, Table VII",3
same,IC50,"[4]; BXPC-3, read-out: In vitro proliferation IC50",28 µM
same,IC50,"[4]; BXPC-3, read-out: in vitro proliferation IC50",28 µM
same,IC50,"[5]; MIA PaCa-2, 72 h",20 µM
same,IC50,"[5]; MIA PaCa-2, read-out: In vitro proliferation IC50",20 µM
same,IC50,"[5]; MIA PaCa-2, read-out: in vitro proliferation IC50",20 µM
same,Therapeutic Index = IC50 resting PBMC/IC50 cancer cell,"[5]; MiaPaca2, Table IV",5
same,Therapeutic Index = IC50 stimulated PBMC/IC50 cancer cell,"[5]; MiaPaca2, Table VII",5
same,IC50,[6]; 72 h,12 µM
same,IC50,[6]; read-out: In vitro proliferation IC50,12 µM
same,IC50,[6]; read-out: in vitro proliferation IC50,12 µM
same,Therapeutic Index = IC50 resting PBMC/IC50 cancer cell,[6]; Table IV,8
same,Therapeutic Index = IC50 stimulated PBMC/IC50 cancer cell,[6]; Table VII,8
same,IC50,"[7]; PANC-1, 72 h",28 µM
same,IC50,"[7]; PANC-1, read-out: In vitro proliferation IC50",28 µM
same,IC50,"[7]; PANC-1, read-out: in vitro proliferation IC50",28 µM
same,Therapeutic Index = IC50 resting PBMC/IC50 cancer cell,"[7]; Panc1, Table IV",3
same,Therapeutic Index = IC50 stimulated PBMC/IC50 cancer cell,"[7]; Panc1, Table VII",3
same,IC50,"[8]; PC-3, 72 h",28 µM
same,IC50,"[8]; PC-3, read-out: In vitro proliferation IC50",28 µM
same,IC50,"[8]; PC-3, read-out: in vitro proliferation IC50",28 µM
same,Therapeutic Index = IC50 resting PBMC/IC50 cancer cell,"[8]; PC3, Table IV",3
same,Therapeutic Index = IC50 stimulated PBMC/IC50 cancer cell,"[8]; PC3, Table VII",3
same,IC50,[9],12 µM
same,IC50,[9]; 72 h,12 µM
same,IC50,[10],28 µM
same,IC50,[10]; 72 h,29 µM
same,IC50,"[11]; PANC-1, 72 h, Panc1, Experiment 1, sigmoidal dose response fit, 10 nM DHT, 3 days",30 µM
same,IC50,"[11]; PANC-1, Panc1, Example 7, Experiment 1",23 µM
same,IC50,"[11]; PANC-1, Panc1, Example 7, Experiment 2",28 µM
same,IC50,"[11]; PANC-1, Panc1, Experiment 2, nonlinear regression least squares fit, additional experiments",28 µM
same,TI on Resting PBMC,[11]; [16],4
same,TI on Resting PBMC,[11]; Experiment 2,3
same,TI on Stimulated PBMC,[11]; [16],5
same,TI on Stimulated PBMC,[11]; Experiment 2,3
same,IC50,"[12]; MIA PaCa-2, 72 h, MiaPaca2, Experiment 1, sigmoidal dose response fit, 10 nM DHT, 3 days",23 µM
same,IC50,"[12]; MIA PaCa-2, MiaPaca2, Example 7, Experiment 1",17 µM
same,IC50,"[12]; MIA PaCa-2, MiaPaca2, Example 7, Experiment 2",20 µM
same,IC50,"[12]; MIA PaCa-2, MiaPaca2, Experiment 2, nonlinear regression least squares fit, additional experiments",20 µM
same,TI on Resting PBMC,[12]; [16],6
same,TI on Resting PBMC,[12]; Experiment 2,4
same,TI on Stimulated PBMC,[12]; [16],7
same,TI on Stimulated PBMC,[12]; Experiment 2,5
same,IC50,"[13]; read-out: IC50 on Stimulated PBMC, Example 7, Experiment 1",113 µM
same,IC50,"[13]; read-out: IC50 on Stimulated PBMC, Example 7, Experiment 2",97 µM
same,IC50,"[13]; read-out: In vitro proliferation IC50, PBMC STIMULATED, Table IV",97 µM
same,IC50,"[13]; read-out: in vitro proliferation IC50, PBMC STIMULATED, Table III",97 µM
same,Therapeutic Index = IC50 resting PBMC/IC50 cancer cell,[14],1
